The source of these data is ChEMBL document CHEMBL3232996, “Synthesis and biological evaluation of novel (123)I-labeled 4-(4-iodophenyl)butanoyl-L-prolyl-(2S)-pyrrolidines for imaging prolyl oligopeptidase in vivo” (Eur J Med Chem, 2014).

Experiment [1] concerns the target Prolyl endopeptidase (Sus scrofa, UniProt P23687). Description: Inhibition of porcine prolyl oligopeptidase using Z-Gly-Pro-AMC as substrate after 60 mins by double-reciprocal plot analysis. As to conditions: read-out: Ki(app).
Experiment [2] deals with Prolyl endopeptidase (Mus musculus, UniProt Q9QUR6). Description: Competitive inhibition of mouse brain prolyl oligopeptidase. The class given is tissue-based.

One may read the IC50 as the concentration needed to halve the response being measured. High values mean weaker potency, low ones greater potency.

Sequence of Prolyl endopeptidase (Sus scrofa, UniProt P23687) (P23687 whole entry): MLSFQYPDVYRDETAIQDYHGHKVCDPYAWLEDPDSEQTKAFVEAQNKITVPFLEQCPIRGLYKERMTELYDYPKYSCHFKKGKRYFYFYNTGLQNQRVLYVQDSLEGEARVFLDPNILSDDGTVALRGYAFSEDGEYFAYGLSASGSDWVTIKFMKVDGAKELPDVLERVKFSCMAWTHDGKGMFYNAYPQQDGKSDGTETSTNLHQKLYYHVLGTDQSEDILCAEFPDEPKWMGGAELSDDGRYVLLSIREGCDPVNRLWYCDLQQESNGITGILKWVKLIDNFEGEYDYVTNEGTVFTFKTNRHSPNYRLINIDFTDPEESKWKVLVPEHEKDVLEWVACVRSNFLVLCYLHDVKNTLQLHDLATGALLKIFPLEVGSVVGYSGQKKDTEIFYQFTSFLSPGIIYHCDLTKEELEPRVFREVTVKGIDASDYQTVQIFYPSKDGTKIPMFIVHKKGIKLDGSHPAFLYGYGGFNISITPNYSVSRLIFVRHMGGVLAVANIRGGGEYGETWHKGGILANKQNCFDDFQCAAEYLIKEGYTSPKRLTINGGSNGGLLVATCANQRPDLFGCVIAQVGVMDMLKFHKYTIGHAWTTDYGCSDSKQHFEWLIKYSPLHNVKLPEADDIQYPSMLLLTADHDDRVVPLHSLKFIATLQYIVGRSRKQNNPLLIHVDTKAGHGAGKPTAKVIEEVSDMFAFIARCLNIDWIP
Sequence of Prolyl endopeptidase (Mus musculus, UniProt Q9QUR6) (Q9QUR6 whole entry): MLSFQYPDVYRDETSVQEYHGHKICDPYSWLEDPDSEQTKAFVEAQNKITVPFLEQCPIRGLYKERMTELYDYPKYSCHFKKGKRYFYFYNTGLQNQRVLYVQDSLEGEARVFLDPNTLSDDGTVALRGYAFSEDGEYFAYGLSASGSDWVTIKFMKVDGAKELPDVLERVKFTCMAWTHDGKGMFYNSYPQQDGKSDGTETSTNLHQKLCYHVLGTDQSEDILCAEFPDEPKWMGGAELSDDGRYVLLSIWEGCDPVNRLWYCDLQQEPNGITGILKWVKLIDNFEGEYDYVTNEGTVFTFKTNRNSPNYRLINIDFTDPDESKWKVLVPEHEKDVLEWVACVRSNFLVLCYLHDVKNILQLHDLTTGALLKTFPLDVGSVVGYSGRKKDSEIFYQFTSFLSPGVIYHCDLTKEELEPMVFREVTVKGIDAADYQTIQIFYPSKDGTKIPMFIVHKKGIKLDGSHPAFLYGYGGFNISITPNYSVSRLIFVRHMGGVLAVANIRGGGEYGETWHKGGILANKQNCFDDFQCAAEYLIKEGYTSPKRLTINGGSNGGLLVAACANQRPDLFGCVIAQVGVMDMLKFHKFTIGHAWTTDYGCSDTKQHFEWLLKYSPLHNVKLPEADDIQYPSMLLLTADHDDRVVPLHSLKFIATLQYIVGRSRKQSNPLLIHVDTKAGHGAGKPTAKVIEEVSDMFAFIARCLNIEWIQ

`N#C[C@@H]1CCCN1C(=O)[C@@H]1CCCN1C(=O)CCCc1ccc(I)cc1`: the Ki at Prolyl endopeptidase [1] was found to be 4.2 nM.
As to `O=C([C@@H]1CCCN1C(=O)CCCc1ccc(I)cc1)N1CCCC1`, the Ki on Prolyl endopeptidase [1] came to 22 nM.
In turn, `[11CH3]Nc1ccc(CCCC(=O)N2CCC[C@H]2C(=O)N2CCCC2)cc1` registered an IC50 at Prolyl endopeptidase [2] of 3.1 nM.
